From patent publication US11673894B2, “Imidazopyrimidines and triazolopyrimidines as A2A / A2B inhibitors” (Incyte Corporation, priority 2018, dated 2023) come the findings set out here.

Assay [1] concerns the target human adenosine A2B receptor (Homo sapiens (Human), UniProt P29275). As to the kind of experiment: Adenosine A2B Receptor Cyclic AMP GS Assay. The format is cell-based. The note with it: HEK-293 cells expressing human A2B receptor; agonist NECA at 12 nM; cAMP accumulation (FRET); read-out: A2B_cAMP_EC50. In outline:
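HEK-293 cells stably expressing human A2B receptor were pretreated 30 min at room temperature with compound, then stimulated with 12 nM NECA for 60 min. cAMP accumulation was measured by HTRF (665/620 ratio). Values were fitted from percent of control versus log concentration.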

Another assay addresses Adenosine A2A receptor (Homo sapiens (Human), UniProt P29274). Briefly: A2A Tag-lite HTRF Assay. The note with it: Tag-lite Adenosine A2A labeled cells; A2A Receptor Red antagonist fluorescent ligand 12.5 nM; one-site competitive binding model; read-out: A2A_Ki. An excerpt:
The final concentration of DMSO was 1%.
In general terms: TR-FRET usually uses a lanthanide donor and a delayed reading to cut background.

Structures are written as SMILES.

Chain of Adenosine A2A receptor (P29274 whole entry): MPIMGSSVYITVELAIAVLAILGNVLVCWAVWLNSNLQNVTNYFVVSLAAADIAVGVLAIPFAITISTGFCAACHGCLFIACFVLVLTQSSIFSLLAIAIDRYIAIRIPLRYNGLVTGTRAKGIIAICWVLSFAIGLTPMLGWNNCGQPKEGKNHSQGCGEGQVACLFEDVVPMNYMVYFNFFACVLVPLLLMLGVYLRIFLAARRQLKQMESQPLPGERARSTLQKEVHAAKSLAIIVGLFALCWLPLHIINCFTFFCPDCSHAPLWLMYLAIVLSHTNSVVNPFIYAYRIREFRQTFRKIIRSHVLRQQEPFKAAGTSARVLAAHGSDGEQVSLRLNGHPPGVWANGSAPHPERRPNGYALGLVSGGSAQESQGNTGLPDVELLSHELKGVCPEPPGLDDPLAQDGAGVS
Chain of human adenosine A2B receptor (P29275 whole entry): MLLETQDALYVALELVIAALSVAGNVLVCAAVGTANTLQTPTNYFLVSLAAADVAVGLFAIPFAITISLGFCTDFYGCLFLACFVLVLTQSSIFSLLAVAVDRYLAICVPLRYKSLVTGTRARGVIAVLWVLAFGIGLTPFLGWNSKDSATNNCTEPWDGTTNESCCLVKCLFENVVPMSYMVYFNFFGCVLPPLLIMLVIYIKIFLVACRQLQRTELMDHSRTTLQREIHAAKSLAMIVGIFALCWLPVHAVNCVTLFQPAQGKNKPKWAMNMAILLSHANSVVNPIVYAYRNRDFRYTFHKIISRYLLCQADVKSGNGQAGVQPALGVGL

Take `N#Cc1cccc(-c2nc(N)n3nc(Cc4ncccc4F)nc3c2-c2ccncn2)c1` [Example 88, 3-(5-Amino-2-((3-fluoropyridin-2-yl)methyl)-8-(pyrimidin-4-yl)-[1,2,4]triazolo[1,5-c]pyrimidin-7-yl)benzonitrile]: in assay [1], the EC50 is less than 10 nM. Further, the Ki on Adenosine A2A receptor is less than 10 nM.
Take `Cc1ncoc1-c1c(-c2cccc(C#N)c2)nc(N)n2nc(Cc3cccc(C(F)(F)F)n3)nc12` [Example 89, 3-(5-Amino-8-(4-methyloxazol-5-yl)-2-((6-(trifluoromethyl)pyridin-2-yl)methyl)-[1,2,4]triazolo[1,5-c]pyrimidin-7-yl)benzonitrile]: the EC50 in assay [1] is less than 10 nM. For the same molecule, the Ki on Adenosine A2A receptor is less than 10 nM.
As to `Cc1ncoc1-c1c(-c2cccc(C#N)c2F)nc(N)n2nc(Cc3ccccn3)nc12` [Example 90, 3-(5-Amino-8-(4-methyloxazol-5-yl)-2-(pyridin-2-ylmethyl)-[1,2,4]triazolo[1,5-c]pyrimidin-7-yl)-2-fluorobenzonitrile], in assay [1], the EC50 was less than 10 nM. Besides, at Adenosine A2A receptor, the Ki was less than 10 nM.
Regarding `Cc1ncoc1-c1c(-c2cccc(C#N)c2)nc(N)n2nc(Cc3ncccc3CO)nc12` [Example 91, 3-(5-Amino-2-((3-(hydroxymethyl)pyridin-2-yl)methyl)-8-(4-methyloxazol-5-yl)-[1,2,4]triazolo[1,5-c]pyrimidin-7-yl)benzonitrile], in assay [1], the EC50 was less than 10 nM. In addition, the Ki at Adenosine A2A receptor is less than 10 nM.
For `Cc1ncoc1-c1c(-c2cccc(C#N)c2)nc(N)n2nc(Cc3ccn(C)n3)nc12` [Example 92, 3-(5-Amino-2-((1-methyl-1H-pyrazol-3-yl)methyl)-8-(4-methyloxazol-5-yl)-[1,2,4]triazolo[1,5-c]pyrimidin-7-yl)benzonitrile], the EC50 in assay [1] is less than 10 nM. Moreover, the Ki at Adenosine A2A receptor was less than 10 nM.
For `Cn1ccc(Cc2nc3c(-c4cnco4)c(-c4cccc(C#N)c4)nc(N)n3n2)n1` [Example 93, 3-(5-Amino-2-((1-methyl-1H-pyrazol-3-yl)methyl)-8-(oxazol-5-yl)-[1,2,4]triazolo[1,5-c]pyrimidin-7-yl)benzonitrile], the EC50 in assay [1] is less than 10 nM. The Ki at Adenosine A2A receptor is less than 10 nM.
In the case of `Cc1cccnc1COc1nc2c(-c3ccncn3)c(-c3cccc(C#N)c3)nc(N)n2n1` [Example 94, 3-(5-Amino-2-((3-methylpyridin-2-yl)methoxy)-8-(pyrimidin-4-yl)-[1,2,4]triazolo[1,5-c]pyrimidin-7-yl)benzonitrile], the EC50 in assay [1] is less than 10 nM. Further, the Ki on Adenosine A2A receptor was less than 10 nM.
Take `Cc1cccc(COc2nc3c(-c4ccncn4)c(-c4cccc(C#N)c4)nc(N)n3n2)n1` [Example 95, 3-(5-Amino-2-((6-methylpyridin-2-yl)methoxy)-8-(pyrimidin-4-yl)-[1,2,4]triazolo[1,5-c]pyrimidin-7-yl)benzonitrile]: in assay [1], the EC50 was less than 10 nM. In addition, the Ki on Adenosine A2A receptor is less than 10 nM.
As for `N#Cc1cccc(-c2nc(N)n3nc(COc4ccccc4C#N)nc3c2-c2ccncn2)c1` [Example 96, 2-((5-Amino-7-(3-cyanophenyl)-8-(pyrimidin-4-yl)-[1,2,4]triazolo[1,5-c]pyrimidin-2-yl)methoxy)benzonitrile], in assay [1], the EC50 is less than 10 nM. Also, the Ki on Adenosine A2A receptor was less than 10 nM.
As for `Cc1cccnc1CNc1nc2c(-c3ccncn3)c(-c3cccc(C#N)c3)nc(N)n2n1` [Example 97, 3-(5-Amino-2-(((3-methylpyridin-2-yl)methyl)amino)-8-(pyrimidin-4-yl)-[1,2,4]triazolo[1,5-c]pyrimidin-7-yl)benzonitrile], the EC50 in assay [1] is less than 10 nM. In addition, at Adenosine A2A receptor, the Ki is less than 10 nM.
